Measurements taken from patent US20250025445A1, “METHOD OF CARDIOPROTECTION” (Race Oncology LTD., priority 2021, published 2025).
Where two headings read alike, the source gives them in different places.

Assays:
[1] = system: Primary Human Cardiac Myocytes (HCMs); experiment: Primary human cardiomyocyte cell viability (CellTiter-Glo); format: cell-based
Protocol: Primary Human Cardiac Myocytes (HCMs) were purchased from PromoCell® (Heidelberg, Germany) and cultured according to manufacturer's recommendations using PromoCell® Myocyte growth media (5% [v/v] foetal calf serum, 0.5 ng/ml recombinant human epidermal growth factor, 2 ng/ml recombinant human basic fibroblast growth factor, 5 μg/ml recombinant human insulin) supplemented with 1% [v/v] Penicillin-Streptomycin [Sigma-Aldrich]). Briefly, 1×10^6 HCMs were seeded and grown in Corning® T75 flasks (Sigma-Aldrich, New South Wales, Australia) in an incubator at 37° C. under 5% CO2 conditions. At 80-90% confluency, HCMs were gently detached using the DetachKit (PromoCell®), collected into Corning® 50 mL centrifuge tubes (Sigma-Aldrich), and centrifuged at 300×g for 10 mins at room temperature. The resulting supernatant were discarded and HCM pellet was resuspended with 5-10 mL of pre-warmed Myocyte Growth Medium. Total viable cells were enumerated with Invitrogen™ Countess Cell Counter (Thermo Fisher Scientific, New South Wales, Australia) and 1×10^5 live HCMs were seeded in triplicate into Corning® 96-well white polystyrene microplate (Sigma).
Dox, Dauno and Epi, were dissolved in sterile water to make a stock concentration of 20 mM, respectively, while Tz was dissolved in sterile PBS to a stock concentration of 100 μM. […] The concentrations were as follows 0 nM, 15.62 nM, 62.5 nM, 250 nM, 500 nM, 1 μM, 5 μM, and 10 μM. […] Vehicle controls were incubated with media supplemented with either sterile water or DMSO. […] This was repeated at 48 hours and 72 hours. […] Both FB23/2 and brequinar (MedChemExpress) were dissolved in dimethyl sulfoxide (DMSO; Sigma-Aldrich) to make a stock concentration of 40 mM and 20 mM respectively.

[2] = system: H929 multiple myeloma cells; experiment: H929 multiple myeloma cell viability (CellTiter-Glo); format: cell-based, human; conditions: 72 hours, FIG. 4
Protocol: Human multiple myeloma NCI-H929 cells were cultured using RPMI-1640 growth media (Sigma-Aldrich), supplemented with 2 mM L-glutamine (Thermo Fisher Scientific), 10% (v/v) foetal calf serum (Sigma-Aldrich) and 0.05 mM 2-mercaptoethanol (Sigma-Aldrich). Briefly, 0.5×10^6 H929 were seeded and grown in Corning® T75 flasks (Sigma-Aldrich) in an incubator at 37° C. under 5% CO2 conditions. At 80-90% confluency, the cell suspension was then collected into Corning® 50 mL centrifuge tubes (Sigma-Aldrich) and centrifuged at 300×g for 10 mins at room temperature. The resulting supernatant were discarded and H929 pellet was resuspended with 5-10 mL of pre-warmed H929 growth media. Total viable cells were enumerated with Invitrogen™ Countess Cell Counter (Thermo Fisher Scientific, New South Wales, Australia) and 1×10^4 live H929 were seeded in triplicate into Corning® 96-well white polystyrene microplate (Sigma). […] The concentrations were as follows 0 nM, 15.62 nM, 62.5 nM, 250 nM, 500 nM, 1 μM, 5 μM, and 10 μM. […] Vehicle controls were incubated with media supplemented with either sterile water or DMSO. […] This was repeated at 48 hours and 72 hours. […] Both FB23/2 and brequinar (MedChemExpress) were dissolved in dimethyl sulfoxide (DMSO; […]

[3] = system: MDA-MB-231 breast cancer cells; experiment: MDA-MB-231 breast cancer cell viability with Webb synergy analysis; format: cell-based, human
Protocol: Human breast cancer cell line NDA-MB-231 was cultured in a humidified chamber at 37° C. with 5% CO2 in DMEM supplemented with 10% foetal bovine serum (FBS), 2 mM L-glutamine and 2% HEPES. Cells were maintained adherent.

[4] = Doxorubicin cardiotoxicity in mice: histologic cardiac fibrosis; format: in vivo; conditions: bisantrene co-administered with doxorubicin at 1:1 molar ratio; Day 21; relative to matched doses of doxorubicin
Source text: (§1) In particular, well established cardiotoxicity markers, including left ventricular fractional shortening, heart E/A ratio, left ventricular diastolic function, left ventricular dilatation, cardiac output, plasma triglyceride levels, plasma creatine kinase-MB (CK-MB), plasma LDH (lactate dehydrogenase) and plasma brain natriuretic peptide (BNP) were monitored over a period of up to 42 days following the start of treatments delivered weekly, four times (and therefore final treatment on day 21).
(§2) Treatments were delivered to mice intravenously on days 0, 7, 14 and 21. Mice underwent echocardiography measurements at days 0, 21 and 42 to determine LVEF, FS, EDV, ESV, CO, E wave, A wave, E′, E/A, and E/E′, and blood samples were taken at days 0, 21 and 42 to assay for cardiac troponin I levels, BNP levels, CK, LDH levels and triglycerides.

[5] = system: colon 26, Lewis lung, Ridgway osteosarcoma, B16, Lieberman plasma cell, P388 or L1210 cancer cells; conditions: cited from earlier work
[6] = system: tumor cells from 684 patients; conditions: breast, small cell lung, large cell lung, squamous cell lung, ovarian, pancreatic, renal, adrenal, head and neck, sarcoma, gastric, lymphoma and melanoma tumor cells; cited from earlier work
[7] = Doxorubicin cardiotoxicity in mice: blood tests
Source text: as §1, §2

[8] = bisantrene 3.67 mg/kg + doxorubicin 5 mg/kg (Dox+Bis 1:1)
[9] = bisantrene 5.65 mg/kg + doxorubicin 4 mg/kg (Dox+Bis 80% of 1:2)

C(=NNC1=NCCN1)c1c2ccccc2c(C=NNC2=NCCN2)c2ccccc12 [bisantrene, 9,10-anthracenedicarboxaldehyde bis [(4,5-dihydro-1H-imidazol-2-yl)hydrazone]]
protection of cardiomyocytes against toxicity of CFZ ([1]; 0-5 μM bisantrene with 1 μM carfilzomib, 24, 48, 72 hrs, FIG. 1): concentration-dependent protection | protection of cardiomyocytes against toxicity of Dox ([1]; 0-5 μM bisantrene with 1 μM doxorubicin, 24, 48, 72 hrs, FIG. 1): concentration-dependent protection | rescue of bortezomib cardiomyocyte toxicity ([1]; 1 μM bisantrene coadministered with bortezomib, 72 hours, FIG. 7): significant rescue of cardiomyocyte toxicity | rescue of carfilzomib cardiomyocyte toxicity ([1]; 1 μM bisantrene coadministered with carfilzomib, 72 hours, FIG. 7): significant rescue of cardiomyocyte toxicity | rescue of daunorubicin cardiotoxicity on cardiomyocytes ([1]; 1 μM bisantrene with 1 μM daunorubicin, 72 hours, FIG. 5): cardiotoxicity rescue effects | rescue of epirubicin cardiotoxicity on cardiomyocytes ([1]; 1 μM bisantrene with 1 μM epirubicin, 72 hours, FIG. 6): a trend toward statistical significance | effect on combined toxicity of doxorubicin and trastuzumab to cardiomyocytes ([1]; 1 or 5 μM bisantrene with 1 μM doxorubicin and 500 nM trastuzumab, FIG. 2): reduced the combined toxicity | effect of increasing bisantrene on loss of cardiomyocyte viability with doxorubicin alone ([1]; 1 or 5 μM bisantrene with 1 μM doxorubicin, FIG. 2): reduced loss of viability | toxicity (loss in cell viability) to cardiomyocytes ([1]; agent alone (1 μM doxorubicin, 1 μM carfilzomib, 0-5 μM bisantrene), 24 hrs, 48 hrs and 72 hrs, FIG. 1): mild progressive toxicity | toxicity to H929 multiple myeloma cells ([2]; 0-5 μM bisantrene alone): concentration-dependent toxicity | interference with toxicity of carfilzomib to H929 cells ([2]; 0-5 μM bisantrene with 1 μM carfilzomib): did not interfere with the toxicity | toxic effects against MDA-MB-231 breast cancer cells ([3]; bisantrene alone, FIGS. 8 to 10): concentration-dependent toxic effects | combined effect with carfilzomib on MDA-MB-231 cells ([3]; bisantrene with carfilzomib, Webb synergy analysis, FIG. 10C): at least additive to, if not synergistic with | combined effect with doxorubicin on MDA-MB-231 cells ([3]; bisantrene with doxorubicin, Webb synergy analysis, FIGS. 8, 10A): at least additive to, if not synergistic with | combined effect with epirubicin on MDA-MB-231 cells ([3]; bisantrene with epirubicin, Webb synergy analysis, FIGS. 9, 10B): at least additive to, if not synergistic with | histologic cardiac fibrosis [4]: significantly decreased | mitigation of doxorubicin cardiotoxicity: cardiac output [8]: mitigation of doxorubicin cardiotoxicity | mitigation of doxorubicin cardiotoxicity: left ventricular diastolic function [8]: appeared to mitigate the cardiotoxic effects | mitigation of doxorubicin cardiotoxicity: left ventricular dilatation [8]: appeared to mitigate the cardiotoxic effects | mitigation of doxorubicin cardiotoxicity: left ventricular fractional shortening [8]: significantly mitigated | mitigation of doxorubicin cardiotoxicity: cardiac output [9]: even less effect | mitigation of doxorubicin cardiotoxicity: left ventricular fractional shortening [9]: less effect | mitigation of doxorubicin cardiotoxicity: left ventricular fractional shortening (bisantrene 7.33 mg/kg + doxorubicin 5 mg/kg (Dox+Bis 1:2)): significantly mitigated | mitigation of doxorubicin cardiotoxicity: cardiac output (bisantrene 7.33 mg/kg + doxorubicin 5 mg/kg (Dox+Bis 1:2), compared to Dox+Bis 1:1): mitigation of doxorubicin cardiotoxicity was slightly greater | cardiac output (bisantrene 7.33 mg/kg alone): suggestion (but not significant) of mild deleterious effects | left ventricular diastolic function (bisantrene 7.33 mg/kg alone): suggestion (but not significant) of mild deleterious effects | left ventricular dilatation (bisantrene 7.33 mg/kg alone): suggestion (but not significant) of mild deleterious effects | left ventricular fractional shortening (bisantrene 7.33 mg/kg alone, i.v. days 0, 7, 14, 21): suggestion (but not significant) of mild deleterious effects | effectiveness in cancer models [5]: effective | activity in clonogenic assays [6]: Activity in clonogenic assays from 684 patients was seen | plasma CK-MB levels ([7]; bisantrene 3.67 mg/kg + doxorubicin 5 mg/kg (Dox+Bis 1:1), day 21): kept CK-MB levels down at or near the vehicle-only control levels | mitigation of doxorubicin-induced plasma triglyceride increases ([7]; bisantrene 3.67 mg/kg + doxorubicin 5 mg/kg (Dox+Bis 1:1), day 21 and day 42): significant mitigation | mitigation of doxorubicin-induced plasma triglyceride increases [7, 9]: less effect | plasma CK-MB levels ([7]; bisantrene 7.33 mg/kg + doxorubicin 5 mg/kg (Dox+Bis 1:2), day 21): kept CK-MB levels down at or near the vehicle-only control levels | mitigation of doxorubicin-induced plasma triglyceride increases ([7]; bisantrene 7.33 mg/kg + doxorubicin 5 mg/kg (Dox+Bis 1:2), day 42): significant mitigation | brain natriuretic peptide levels (mitigation of doxorubicin effects) ([7]; bisantrene 7.33 mg/kg + doxorubicin 5 mg/kg (Dox: Bis 1:2), day 42 or day 21): not significant | plasma triglycerides ([7]; bisantrene 7.33 mg/kg alone, day 21, vs vehicle-only control): slight (but insignificant) increase | plasma triglycerides (increase) ([7]; bisantrene 7.33 mg/kg alone, day 42, vs vehicle-only control): not at day 42
